System: breast cancer
Experiment: Retrospective clinical study of adjuvant tamoxifen treatment of breast cancer
Type: in vivo, human
Details: overexpression of PPARBP
Text: In particular, elevated levels of the PPARBP gene and protein and the integrity of the telomeric hormone receptor region of the 17q21 ARCHEON, bearing THRA, NR1D1 and RARA, or its related regions on the other ARCHEONs are of importance for these therapeutic regimens. […] Overexpression of PPARBP enables activity of estrogen and progesteron receptors irrespective of a bound ligand. Therefore, the deregulation of the PPARBP results in the activity of these hormone receptors in the absence of the hormones and even in the presence of anti-hormones and thereby circumvents the anti tumor effect of anti hormonal strategies resulting in resistance of PPARBP overexpressing cells. In addition overexpression of hormone receptors other than estrogen receptor in tumor cells affects activity of estrogen or the respective anti-hormones by competition for dimerization partners, such as RXR, or transcriptional activator or repressor genes, such as CBP or NCOR. With regard to tamoxifen treatment this clearly diminishes the effect of the anti-hormone, as the pool of the transcriptional cofactors is reduced for the classical mode of action of tamoxifen within the nucleus.

CC/C(=C(\c1ccccc1)c1ccc(OCCN(C)C)cc1)c1ccccc1 [tamoxifen]
overall survival of patients receiving adjuvant tamoxifen: has impact on the overall survival
